Laboratory results from patent US7691444B2, “Preservatives for wood-based products” (LANXESS Deutschland GmbH, priority 2002, dated 2010).
Where two headings read alike, the source gives them in different places.

What was measured:
[1] = cited from earlier work
[2] = Stability under the conditions of the glue-line treatment; format: physicochemical
Tyromyces palustris = assay: Standard rot trial (Japan Wood Preservers Association Standard Test procedure) on glueline-treated plywood; format: cell-based; conditions: phenol formaldehyde glue
decay causing fungi = assay: Efficacy in the glue-line under alkaline conditions (PF type glues); conditions: alkaline conditions such as PF type glues
[3] = use rate 100 gram a.i./m^3 in the glueline of plywood from pinus spp
[4] = use rate 200 gram a.i./m^3 in the glueline of plywood from pinus spp
[5] = use rate 400 gram a.i./m^3 in the glueline of plywood from pinus spp
[6] = use rate 800 gram a.i./m^3 in the glueline of plywood from pinus spp

SMILES	Use rate range (agricultural uses) [1]	Stability under the conditions of the glue-line treatment ([2]; glue-line treatment)	Efficacy against target organism (expressed as weight loss percent in a standard rot trial) (Tyromyces palustris; [3]) [%]	Efficacy against target organism (expressed as weight loss percent in a standard rot trial) (Tyromyces palustris; [4]) [%]	Efficacy against target organism (expressed as weight loss percent in a standard rot trial) (Tyromyces palustris; [5]) [%]	Efficacy against target organism (expressed as weight loss percent in a standard rot trial) (Tyromyces palustris; [6]) [%]	Stability under the conditions of the glue-line treatment [2]	Efficacy relative to triadimefon (decay causing fungi)	Efficacy against target organism (expressed as weight loss percent in a standard rot trial) (Tyromyces palustris; use rate 80 gram a.i./m^3 in the glueline of plywood from pinus spp) [%]	Efficacy against target organism (expressed as weight loss percent in a standard rot trial) (Tyromyces palustris; use rate 160 gram a.i./m^3 in the glueline of plywood from pinus spp) [%]	Efficacy against target organism (expressed as weight loss percent in a standard rot trial) (Tyromyces palustris; use rate 320 gram a.i./m^3 in the glueline of plywood from pinus spp) [%]	Efficacy against target organism (expressed as weight loss percent in a standard rot trial) (Tyromyces palustris; use rate 640 gram a.i./m^3 in the glueline of plywood from pinus spp) [%]
CC(C)(C)C(=O)C(Oc1ccc(Cl)cc1)n1cncn1 (racemic) [triadimefon, (±)1-(4-chlorophenoxy)-3,3-dimethyl-1-(1H-1,2,4-triazol-1-yl)butan-2-one]	125–500 g/ha	stable	3.7	0.5	0.9	1.4	–	–	–	–	–	–
CC(C)(C)C(O)C(Oc1ccc(Cl)cc1)n1cncn1 (racemic) [triadimenol, (±) 1-(4-chlorophenoxy)-3,3-dimethyl-1-(1H-1,2,4-triazol-1-yl)butan-2-ol]	125–500 g/ha	–	–	–	–	–	stable	same efficacy as triadimefon	–	–	–	–
CCCC1COC(Cn2cncn2)(c2ccc(Cl)cc2Cl)O1 (stereo not shown) [propiconazole]	100–150 g/ha	–	20.5	7.6	21.4	1.8	–	–	–	–	–	–
CC(C)(C)C(O)(CCc1ccc(Cl)cc1)Cn1cncn1 (stereo not shown) [tebuconazole]	100–250 g/ha	–	–	–	–	–	–	–	9.2	20.9	6.3	18.5
